Q: With `CC(=O)c1c(-c2ccncc2)[nH]c(-c2ccncc2)c1CO` [Example 33, 3-Acetyl-4-hydroxymethyl-2,5-di(4-pyridyl)-1H-pyrrole] as the compound, how does the melting point read?
A: The melting point was 205 to 207 °C.

Q: For `CC(=O)c1c(-c2ccncc2)[nH]c(-c2ccccc2)c1C` [Example 47, 3-Acetyl-4-methyl-5-phenyl-2-(4-pyridyl)-1H-pyrrole], which melting point is on record?
A: Its melting point is 208 to 209 °C.

Q: Which melting point does the source give for `CCOC(=O)c1c(-c2ccncc2)[nH]c(-c2ccncc2)c1-c1ccccc1` [Example 18, 3-Ethoxycarbonyl-4-phenyl-2,5-di(4-pyridyl)-1H-pyrrole] here?
A: Its melting point is 99 to 100 °C.

Q: With `CCCCC(=O)c1c(-c2ccncc2)[nH]c(-c2ccncc2)c1C` [Example 6, 4-Methyl-2,5-di(4-pyridyl)-3-pentanoyl-1H-pyrrole] as the compound, how does the melting point read?
A: Its melting point is 88 to 89 °C.

Q: With `CC(=O)c1c(-c2ccco2)[nH]c(-c2ccncc2)c1C` [Example 69, 3-Acetyl-2-(2-furyl)-4-methyl-5-(4-pyridyl)-1H-pyrrole] as the compound, how does the melting point read?
A: The melting point was 218 to 220 °C.

Q: With `C=Cc1[nH]c(-c2ccncc2)c(C)c1C(C)=O` [Example 67, 3-Acetyl-4-methyl-5-(4-pyridyl)-2-vinyl-1H-pyrrole] as the compound, how does the melting point read?
A: The melting point was 150 to 155 °C.

Q: For `Cc1c(-c2ccncc2)[nH]c2c1C(=O)CCC2` [Example 49, 3-Methyl-4-oxo-2-(4-pyridyl)-4,5,6,7-tetrahydro-1H-indole], which melting point is on record?
A: The melting point was 248 to 249 °C.

Q: For `Cc1c(-c2ccncc2)[nH]c(-c2ccncc2)c1CO` [Example 39, 3-Hydroxymethyl-4-methyl-2,5-di(4-pyridyl)-1H-pyrrole], which melting point is on record?
A: Its melting point is 258 to 261 °C.

Q: For `CCOC(=O)c1c(-c2ccncc2)[nH]c(-c2ccncc2)c1C` [Example 11, 3-Ethoxycarbonyl-4-methyl-2,5-di(4-pyridyl)-1H-pyrrole], which melting point is on record?
A: The melting point was 206 to 208 °C.

Q: With `COCCOC(=O)c1c(-c2ccncc2)[nH]c(-c2ccncc2)c1C` [Example 20, 3-(2-Methoxyethoxy)carbonyl-4-methyl-2,5-di(4-pyridyl)-1H-pyrrole] as the compound, how does the melting point read?
A: The melting point was 174 to 177 °C.

Q: With `CC(=O)c1c(-c2cccc(N)c2)[nH]c(-c2ccncc2)c1C` [Example 58, 3-Acetyl-2-(3-aminophenyl)-4-methyl-5-(4-pyridyl)-1H-pyrrole] as the compound, how does the melting point read?
A: Its melting point is 193 to 195 °C.

Q: With `CC(=O)c1c(-c2cccnc2)[nH]c(-c2ccncc2)c1C` [Example 65, 3-Acetyl-4-methyl-2-(3-pyridyl)-5-(4-pyridyl)-1H-pyrrole] as the compound, how does the melting point read?
A: Its melting point is 182 to 186 °C.

Q: Which melting point does the source give for `CC(=O)c1c(-c2ccncc2)[nH]c(-c2ccnc3ccccc23)c1C` [Example 9, 3-Acetyl-4-methyl-2-(4-pyridyl)-5-(4-quinolyl)-1H-pyrrole] here?
A: Its melting point is 237 to 239 °C.

Q: With `Cc1c(-c2ccncc2)[nH]c(-c2ccncc2)c1C(=O)CC(C)C` [Example 90, 4-Methyl-3-(3-methylbutanoyl)-2,5-di(4-pyridyl)-1H-pyrrole] as the compound, how does the melting point read?
A: The melting point was 199 to 201 °C.

Q: For `C=CCOC(=O)c1c(-c2ccncc2)[nH]c(-c2ccncc2)c1C` [Example 14, 3-Allyloxycarbonyl-4-methyl-2,5-di(4-pyridyl)-1H-pyrrole], which melting point is on record?
A: The melting point was 224 to 224.5 °C.

Q: For `CC(=O)c1c(-c2ccc(F)cc2)[nH]c(-c2ccncc2)c1C` [Example 51, 3-Acetyl-2-(4-fluorophenyl)4-methyl-5-(4-pyridyl)-1H-pyrrole], which melting point is on record?
A: The melting point was 202 to 203 °C.

Q: With `Cc1c(-c2ccncc2)[nH]c(-c2ccncc2)c1C(=O)OCc1ccccc1` [Example 13, 3-Benzyloxycarbonyl-4-methyl-2,5-di(4-pyridyl)-1H-pyrrole] as the compound, how does the melting point read?
A: The melting point was 204 to 205 °C.

Q: With `CC(=O)c1c(-c2ccccc2)[nH]c(-c2ccncc2)c1C` [Example 46, 3-Acetyl-4-methyl-2-phenyl-5-(4-pyridyl)-1H-pyrrole] as the compound, how does the melting point read?
A: Its melting point is 202 to 203 °C.

Q: Which melting point does the source give for `CCOC(=O)c1c(-c2ccncc2)[nH]c(-c2ccncc2)c1CC` [Example 10, 3-Ethoxycarbonyl-4-ethyl-2,5-di(4-pyridyl)-1H-pyrrole] here?
A: Its melting point is 212 to 215 °C.

Q: With `Cc1c(-c2ccncc2)[nH]c2c1C(=O)CC(C)(C)C2` [Example 55, 4-Oxo-2-(4-pyridyl)-3,6,6-trimethyl-4,5,6,7-tetrahydro-1H-indole] as the compound, how does the melting point read?
A: The melting point was 241 to 241.5 °C.

Q: For `COCc1c(-c2ccncc2)[nH]c(-c2ccncc2)c1C(=O)OC` [Example 24, 3-Methoxycarbonyl-4-methoxymethyl-2,5-di(4-pyridyl)-1H-pyrrole], which melting point is on record?
A: Its melting point is 97 to 99 °C.

Q: With `Cc1c(-c2ccncc2)[nH]c(-c2ccncc2)c1C=O` [Example 26, 3-Formyl-4-methyl-2,5-di(4-pyridyl)-1H-pyrrole] as the compound, how does the melting point read?
A: The melting point was 278 to 280 °C.

Q: Which melting point does the source give for `CC(=O)c1c([N+](=O)[O-])[nH]c(-c2ccncc2)c1C` [Example 84, 3-Acetyl-4-methyl-2-nitro-5-(4-pyridyl)-1H-pyrrole] here?
A: The melting point was 187 to 188 °C.

Q: For `CC(=O)c1c(C=O)[nH]c(-c2ccncc2)c1C` [Example 88, 3Acetyl-2-formyl-4-methyl-5-(4-pyridyl)-1H-pyrrole], which melting point is on record?
A: The melting point was 208 to 209 °C.

Q: Which melting point does the source give for `Cc1c(-c2ccncc2)[nH]c(-c2ccncc2)c1C(N)=O` [Example 40, 3-Aminocarbonyl-4-methyl-2,5-di(4-pyridyl)-1H-pyrrole] here?
A: The melting point was 212 to 215 °C.

Q: With `CC(=O)c1c(N2CCN(c3ccccc3)CC2)[nH]c(-c2ccncc2)c1C` [Example 78, 3-Acetyl-4-methyl-2-(4-phenylpiperazin-1-yl)-5-(4-pyridyl)-1H-pyrrole] as the compound, how does the melting point read?
A: The melting point was 218 to 220 °C.

Q: With `Cc1c(-c2ccncc2)[nH]c(-c2ccncc2)c1C(=O)OC(C)(C)C` [Example 16, 4-Methyl-3-(1,1-dimethylethoxy)carbonyl-2,5-di(4-pyridyl)-1H-pyrrole] as the compound, how does the melting point read?
A: Its melting point is 265 to 267 °C.

Q: For `Cc1c(-c2ccncc2)[nH]c2c1C(=O)CCC2(C)C` [Example 82 (3,7,7-trimethyl), 4-Oxo-2-(4-pyridyl)-3,7,7-trimethyl-4,5,6,7-tetrahydro-1H-indole], which melting point is on record?
A: Its melting point is 278 to 280 °C.

Q: With `Cc1c(-c2ccncc2)[nH]c(-c2ccncc2)c1S(C)(=O)=O` [Example 27, 3-Metha nesulfonyl-4-methyl-2,5-di(4-pyridyl)-1H-pyrrole] as the compound, how does the melting point read?
A: Its melting point is 232 to 234 °C.

Q: With `CCOC(=O)c1c(-c2ccncc2)[nH]c(-c2ccncc2)c1-c1ccc([N+](=O)[O-])cc1` [Example 25, 3-Ethoxycarbonyl-4-(4-nitrophenyl)-2,5-di(4-pyridyl)-1H-pyrrole] as the compound, how does the melting point read?
A: Its melting point is 274 to 276 °C.

Q: Which melting point does the source give for `CC(=O)c1c(-c2ccc(C(F)(F)F)cc2)[nH]c(-c2ccncc2)c1C` [Example 73, 3-Acetyl-4-methyl-5-(4-pyridyl)-2-(4-trifluoromethylphenyl)-1H-pyrrole] here?
A: Its melting point is 178.5 to 179.5 °C.

Q: Which melting point does the source give for `CSc1ccc(-c2[nH]c(-c3ccncc3)c(C)c2C(C)=O)cc1` [Example 71, 3-Acetyl-4-methyl-2-(4-methylthiophenyl)-5-(4-pyridyl)-1H-pyrrole] here?
A: The melting point was 169 to 172 °C.

Q: With `Cc1c(-c2ccncc2)[nH]c2c1C(=O)CC(c1ccccc1)C2` (centres unmarked) [Example 56, 3-Methyl-4-oxo-6-phenyl-2-(4-pyridyl)-4,5,6,7-tetrahydro-1H-indole] as the compound, how does the melting point read?
A: The melting point was 256 to 257 °C.

Q: With `CC(=O)c1c(C)[nH]c(-c2ccncc2)c1-c1ccncc1` [Example 42, 3-Acetyl-2-methyl-4,5-di(4-pyridyl)1H-pyrrole] as the compound, how does the melting point read?
A: The melting point was 236 to 239 °C.

Q: With `CC(=O)c1c[nH]c(-c2ccncc2)c1C` [Example 48, 3-Acetyl-4-methyl-5-(4-pyridyl)-1H-pyrrole] as the compound, how does the melting point read?
A: The melting point was 210 to 211 °C.

From patent US6417202B1, “Pyridylpyrrole compounds useful as interleukin-and TNF antagonists” (Pfizer Inc., priority 1996, dated 2002)
